Source: PMC7156458, “Synthetic biology based construction of biological activity-related library of fungal decalin-containing diterpenoid pyrones” (Nature Communications, 2020)
“And” between values parts separate entries of the source, which are not always exact repeats. Equal entries are not always repeated. Where two headings read alike, the source gives them in different places. One block for each molecule: values may come before it.

Legend:
MCF-7 cells [1] = test: cell cytotoxic effects against MCF-7 cells (72 h), A490; assay type: cell-based, human; details: MCF-7, 72 h; for viability at 0.1 µM / viability at 1 µM / viability at 10 µM: Homo sapiens, MCF7, 72 h, read-out: A490 (control =1) ave
Protocol: !" ' ' '! !" ' ' '! !" ' ' '!!" ' ' '!!" ' ' '!!" ' ' '!!" ' ' '!!" ' ' '! !" ' ' '! !" ' ' '! !" ' ' '! !"#$
( % ) * '! '' '# '+ '$ '( '%
! " # $ %& %% %' %( %) %! %"
!" ' ' '! !" ' ' '!!" ' ' '!!" ' ' '!!" ' ' '!!" ' ' '!!" ' ' '! !" ' ' '! !" ' ' '! !" ' ' '! !" ' ' '! […]
Supplementary Fig. 46. a, Cell cytotoxic effects of DDPs against MCF-7 cells (72 h).
dose dependent cytotoxic effects against MCF-7 cells were tested their inhibitory activity against mammosphere
formation. Compound in blue (16) was also performed mammosphere assay as negative control. Data represent
mean±s.d. from three independent replicate experiments. […]
Source data underlying Supplementary Figure 46a are provided in a Source Data file. […]

MCF-7 cells [2] = test: mammosphere formation assay; assay type: cell-based, human; details: MCF-7, 5 μM, 7 days; for MFE (%) ave: mean of 3, control 0.87; for MFE (control = 1) ave: relative to control = 1; for MFE (%): single replicates
Protocol: We also evaluated antiproliferative activity against cancer stem cells (CSCs), which are a small sub-population in tumour bulk identified in most cancer cells and clinical samples[52]. CSCs have been a major problem in cancer therapy because they are responsible for recurrence, metastasis and drug resistance to chemotherapeutic agents that affect proliferative cells[53]–[56]. Anti-CSC activity was evaluated by the inhibition of sphere-forming ability, a well-studied method to enrich the CSC-like population, and selective cytotoxicity against one of the most reliable CSC markers, aldehyde dehydrogenase (ALDH)-positive cells. […] Low-toxicity 16 was also added as a negative control. […] We next evaluated the three DDPs that inhibited mammosphere formations against ALDH-positive cells, a functional marker for breast CSCs. MCF-7 cells were treated with 1 μM of 11, 12 or 22, and the ALDH-positive cell population was analysed by using a fluorescence activated cell sorter (Supplementary Fig. 46b). […] Thus, for the first time, we successfully found DDPs with potent antiproliferative effects on the CSC-like population in MCF-7 cells, which may lead to new anti-CSC drugs.
Fig. 5 DDPs show anti-CSC activity in breast cancer cell line MCF-7. a Effect of DDPs on mammosphere formation. After the cells were cultured in the presence of 5 μM DDPs for 7 days, the number of mammospheres was microscopically counted and the percentage of mammosphere-forming cells was determined as mammosphere-forming efficiency (MFE; %). Data represent mean ± s.d. from three independent replicate experiments. P-values were calculated by a two-sided unpaired Student’s t-test, compared with control. b Micrographs show representative images of mammosphere formation from three independent replicate experiments using compound 11, 12, 16, 22. The scale bar, […]. c Effect of DDPs (1 μM, 3 days) on ALDH-positive cells in MCF-7 cells. Data represent mean ± s.d. from three independent replicate experiments. P-values were calculated by a two-sided unpaired Student’s t-test, compared with control. d Dose-dependent effect of compound 12 on ALDH-positive cells in MCF-7 cells. Data represent mean ± s.d. from three independent replicate experiments. P-values were calculated by a two-sided unpaired Student’s t-test. Source data underlying Fig. 5a, c, d are provided in a Source Data file.

[3] = tested on: human immunodeficiency virus-1 (HIV-1); test: anti-HIV MAGI assay; assay type: cell-based; details: anti-HIV
Text: (§1) We examined the inhibitory activities of DDPs against various species of bacteria (both gram-negative and gram-positive bacteria), fungi and viruses. […] In contrast, preliminary screening of the DDPs for anti-viral agents with hepatitis B virus (HBV), measles virus (MV), Epstein-Barr virus (EBV), herpes simplex virus (HSV) and human immunodeficiency virus-1 (HIV-1) indicated their selective inhibition of HIV.

MAGI cells = test: cytotoxicity in the anti-HIV assay (CC50); assay type: cell-based
Text: as §1
Policy information about cell lines […]
HeLa-CD4-LTR/ !-galactosidase (MAGI) cells provided by Dr. J. Overbaugh through the NIH AIDS Research and Reference […]
MAGI cells were authenticated by the NIH.
Mycoplasma contamination All the cell lines tested negative for mycoplasma contamination.
Commonly misidentified lines No commonly mis-identified cell lines. […]

[4] = 0.1 µM (DMSO 0.002%), control 1.064
[5] = 1 µM (DMSO 0.02%), control 1.104
[6] = 10 µM (DMSO 0.2%), control 1.049

SMILES: COc1cccc2c1C(=O)c1c(O)c3c(c(O)c1C2=O)C[C@@](O)(C(=O)CO)C[C@@H]3O[C@H]1C[C@H](N)[C@H](O)[C@H](C)O1 [Dox, doxorubicin, reference compound]
- viability at 0.1 µM (MCF-7 cells [1]; 0.1 µM (DMSO 0.002%)): 82.9%
- viability at 1 µM (MCF-7 cells [1]; 1 µM (DMSO 0.02%)): 47.4%
- viability at 10 µM (MCF-7 cells [1]; 10 µM (DMSO 0.2%)): 21%
- A490 ave (MCF-7 cells [1]; [4]): 0.882
- A490 ave (MCF-7 cells [1]; [5]): 0.523
- A490 ave (MCF-7 cells [1]; [6]): 0.220
- A490 (MCF-7 cells [1]; 10 µM (DMSO 0.2%), single replicates): 0.193
- MFE (%) ave (MCF-7 cells [2]): 0.58%
- MFE (control = 1) ave (MCF-7 cells [2]): 0.67
- MFE (%) (MCF-7 cells [2]): 0.68% and 0.52% and 0.54%

- EC50 ([3]; Human immunodeficiency virus 1, MAGI, average of numeric determinations, read-out: Avg. EC50): 76 nM
SMILES: Cc1oc(=O)cc(O)c1C [Compound 1]
- Cytotoxicity (MAGI cells; single determinations): >10 µM and 9.224 µM and 8.859 µM

SMILES: O=c1[nH]cc(F)c(=O)[nH]1 [Compound 5-FU, 5-fluorouracil, reference compound]
- viability at 0.1 µM (MCF-7 cells [1]; 0.1 µM (DMSO 0.002%)): 75.5%
- viability at 1 µM (MCF-7 cells [1]; 1 µM (DMSO 0.02%)): 67.3%
- viability at 10 µM (MCF-7 cells [1]; 10 µM (DMSO 0.2%)): 55.5%
- A490 ave (MCF-7 cells [1]; [4]): 0.803
- A490 ave (MCF-7 cells [1]; [5]): 0.744
- A490 ave (MCF-7 cells [1]; [6]): 0.582
- MFE (%) ave (MCF-7 cells [2]): 1.09%
- MFE (control = 1) ave (MCF-7 cells [2]): 1.25
- MFE (%) (MCF-7 cells [2]): 1.16% and 1.20% and 0.90%

- EC50 ([3]; MAGI assay, read-out: EC50): 29.7 nM
- EC50 ([3]; average of numeric determinations, read-out: Avg. EC50): 29.7 nM
SMILES: Cc1cn([C@H]2C[C@H](N=[N+]=[N-])[C@@H](CO)O2)c(=O)[nH]c1=O [AZT, reference compound]
- CC50 (MAGI cells): > 10000 nM
- Cytotoxicity (MAGI cells): >10 µM

- EC50 ([3]; Human immunodeficiency virus 1, MAGI, single determinations, read-out: Efficacy (EC50)): > 10000 nM
SMILES: CC(C)=CCCC1(C)OC1CC/C(C)=C/CC/C(C)=C/Cc1c(O)c(C)c(C)oc1=O (centres unmarked) [Compound 3]
